PubChem BioAssay AID2060903 (Molecular Pharmacology Branch, DTP, NCI, 2025)

System: 377384-186-R-J1-PDC complex spheroid viability
Experiment: Anticancer human tumor 377384-186-R-J1-PDC patient-derived pancreatic carcinoma cell line growth inhibition [RAS]
Details: for IC50: curve of first compound; for viability, T/C: stronger effect = lower value
From the text: RAS pathway inhibitors in Combinations in Complex Spheroids
A high-throughput screen of multi-cell type tumor spheroids was designed to identify active combinations of RAS pathway inhibitors and targeted small molecules. Complex spheroids include a stromal component modeled by human endothelial cells (HUVEC) and fibroblasts modeled by human mesenchymal stem cells (MSCs). The concentration ranges selected for each drug and investigational agent were based upon clinically achievable concentrations if the clinical Cmax of the agent was known.
Compounds. The drugs and investigational agents: abemaciclib (NSC768073), cobimetinib (NSC768068), divarasib (GDC6063, NSC841802), docetaxel (NSC628503), GDC-1971 (RLY-1971, NSC841576), gemcitabine (NSC613327), inavolisib (NSC800729), ipatasertib (NSC767898), KB-0742 (NSC834161), MRTX-1133 (NSC836407), osimertinib (NSC779217), RMC-4630 (NSC839698), RMC-6236 (NSC851965), RMC-6291 (NSC852671), Ro-3306 (NSC812927), sapanisertib (NSC764658), SN-38 (NSC673596), staurosporine (NSC755774), SY5609 (NSC837396), and tovorafenib (DAY101, NSC766906), were obtained from the National Cancer Institute (NCI) Developmental Therapeutics Program Chemical Repository. The FDA-approved anticancer drug set is available from the NCI Developmental Therapeutics Program. […] The stock solutions were prepared in dimethyl sulfoxide (DMSO, Sigma-Aldrich, St. Louis, MO, cat. D2650) at 800-fold the tested concentration and stored at -70 degrees C prior to their use. All drugs and investigational agents were tested over a range starting from a high concentration at or near the clinical Cmax and decreasing in half-log increments. If the clinical Cmax for an agent had not been determined, the highest concentration tested was 10 microM.
Cell Culture. All cells were maintained in an incubator at 37 degrees C and 5% CO2 with 95% humidity. The PDC lines were cultured according to standard operating procedures established by the NCI PDMR. All PDCs were thawed and cultured in Matrigel-coated flasks prepared with a working solution of 1X Ham's F-12 nutrient mix, without supplementation (Invitrogen, Waltham, MA, cat. 11765054), 100 U/mL penicillin-streptomycin (Invitrogen, cat. 15140122), and 2.5% Matrigel (Corning Inc., Corning, NY, cat. 354248) for the first three passages. The 362531-283-R-J2-PDC and 782815-120-R-J1-PDC lines were cultured in 6C/Colon 1B media, which includes advanced DMEM/F-12 (Thermo Fisher Scientific, cat. 12634028), 10 mM HEPES (Thermo Fisher Scientific, cat. 15630080), 1X GlutaMAX supplement (Thermo Fisher Scientific, cat. 35050061), 0.1 mg/mL primocin (InvivoGen, San Diego, CA, cat. ant-pm-2), 10% defined fetal bovine serum, heat inactivated (HyClone Laboratories Inc., Logan, UT, cat. SH30070.03HI), 50% L-WRN conditioned media (ATCC, cat. CRL-3276), 1.25 mM N-Acetyl-L-cysteine (Sigma-Aldrich, cat. A9165), 10 mM nicotinamide (Sigma-Aldrich, cat. N0636), 1X B-27 supplement (Thermo Fisher Scientific, cat. 17504044), 1X N-2 supplement (Thermo Fisher Scientific, cat. 17502048), 50 ng/mL human EGF (Thermo Fisher Scientific, cat. PHG0311), and 10 microM Y-27632 dihydrochloride (Tocris Bioscience, cat. 1254). The K12877-001-R-J1-PDC line was cultured in 6I media, which includes all 6C/Colon 1B media plus 10 ng/mL human FGF-10 (PeproTech, cat. 100-26), 1 ng/mL human FGF-2 (PeproTech, cat. 100-18B), 1 µM prostaglandin E2 (Tocris Bioscience, cat. 2296), […] hydrocortisone (Sigma-Aldrich, cat. H4001), and […] bovine insulin (Sigma-Aldrich, cat. I6634). The K86415-001-R-J1-PDC line was cultured in 6D media, which includes all 6C/Colon 1B media components minus the L-WRN conditioned media. The 485176-168-R4-J1-PDC was cultured in PANC media, which includes all 6C/Colon 1B media plus 100 ng/mL human FGF-10 (PeproTech, cat. 100-26), 500 nM SB-431542 (Selleckchem, cat. S1067), and 10 nM gastrin (Tocris Bioscience, cat. 3006). […]
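Also: spheroids exposed to compounds for seven days before readout.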

Question: How did the IC50 (second compound 0.0316 µM) turn out when `CC1(C)CCC(Nc2ncc(C(F)(F)F)c(-c3c[nH]c4c(P(C)(C)=O)c(C#N)ccc34)n2)CN1` (stereo not drawn) + C#Cc1c(F)ccc2cc(O)cc(-c3ncc4c(N5CC6CCC(C5)N6)nc(OCC56CCCN5CC(F)C6)nc4c3F)c12 was run?
Answer: < 0.949 nM

Question: What about the IC50 (second compound 0.1 µM) of the same molecule?
Answer: < 0.949 nM

Question: What about the IC50 (second compound 0.316 µM) of the same molecule?
Answer: < 0.949 nM

Question: And the IC50 (second compound 1 µM)?
Answer: < 0.949 nM

Question: What about the IC50 (second compound 3.16 µM) of the same molecule?
Answer: < 0.949 nM

Question: And the IC50 (second compound 10 µM)?
Answer: < 0.949 nM

Question: What about the viability, T/C (second compound 0.0316 µM, first compound 0.000949 µM) of the same molecule?
Answer: 22.5%

Question: And the viability, T/C (second compound 0.0316 µM, first compound 0.003 µM)?
Answer: 20.6%

Question: What about the viability, T/C (second compound 0.0316 µM, first compound 0.00949 µM) of the same molecule?
Answer: 14.8%

Question: What about the viability, T/C (second compound 0.0316 µM, first compound 0.03 µM) of the same molecule?
Answer: 14.3%

Question: And the viability, T/C (second compound 0.0316 µM, first compound 0.0949 µM)?
Answer: 11.5%

Question: What about the viability, T/C (second compound 0.0316 µM, first compound 0.3 µM) of the same molecule?
Answer: 10.4%

Question: What about the viability, T/C (second compound 0.1 µM, first compound 0.000949 µM) of the same molecule?
Answer: 12.3%

Question: What about the viability, T/C (second compound 0.1 µM, first compound 0.003 µM) of the same molecule?
Answer: 8.6%

Question: What about the viability, T/C (second compound 0.1 µM, first compound 0.00949 µM) of the same molecule?
Answer: 7.96%

Question: And the viability, T/C (second compound 0.1 µM, first compound 0.03 µM)?
Answer: 7.41%

Question: And the viability, T/C (second compound 0.1 µM, first compound 0.0949 µM)?
Answer: 7.16%

Question: What about the viability, T/C (second compound 0.1 µM, first compound 0.3 µM) of the same molecule?
Answer: 6.43%

Question: And the viability, T/C (second compound 0.316 µM, first compound 0.000949 µM)?
Answer: 4.28%

Question: What about the viability, T/C (second compound 0.316 µM, first compound 0.003 µM) of the same molecule?
Answer: 5.25%

Question: And the viability, T/C (second compound 0.316 µM, first compound 0.00949 µM)?
Answer: 2.68%

Question: And the viability, T/C (second compound 0.316 µM, first compound 0.03 µM)?
Answer: 4.16%

Question: And the viability, T/C (second compound 0.316 µM, first compound 0.0949 µM)?
Answer: 3.74%

Question: What about the viability, T/C (second compound 0.316 µM, first compound 0.3 µM) of the same molecule?
Answer: 2.89%

Question: What about the viability, T/C (second compound 1 µM, first compound 0.000949 µM) of the same molecule?
Answer: 4.34%

Question: And the viability, T/C (second compound 1 µM, first compound 0.003 µM)?
Answer: 2.56%

Question: What about the viability, T/C (second compound 1 µM, first compound 0.00949 µM) of the same molecule?
Answer: 2.74%

Question: What about the viability, T/C (second compound 1 µM, first compound 0.03 µM) of the same molecule?
Answer: 3.25%

Question: What about the viability, T/C (second compound 1 µM, first compound 0.0949 µM) of the same molecule?
Answer: 2.68%

Question: What about the viability, T/C (second compound 1 µM, first compound 0.3 µM) of the same molecule?
Answer: 2.91%

Question: What about the viability, T/C (second compound 3.16 µM, first compound 0.000949 µM) of the same molecule?
Answer: 2.73%

Question: And the viability, T/C (second compound 3.16 µM, first compound 0.003 µM)?
Answer: 2.34%

Question: And the viability, T/C (second compound 3.16 µM, first compound 0.00949 µM)?
Answer: 1.84%

Question: What about the viability, T/C (second compound 3.16 µM, first compound 0.03 µM) of the same molecule?
Answer: 2.23%

Question: What about the viability, T/C (second compound 3.16 µM, first compound 0.0949 µM) of the same molecule?
Answer: 2.14%

Question: And the viability, T/C (second compound 3.16 µM, first compound 0.3 µM)?
Answer: 2.47%

Question: And the viability, T/C (second compound 10 µM, first compound 0.000949 µM)?
Answer: 1.18%

Question: What about the viability, T/C (second compound 10 µM, first compound 0.003 µM) of the same molecule?
Answer: 1.24%

Question: What about the viability, T/C (second compound 10 µM, first compound 0.00949 µM) of the same molecule?
Answer: 1.33%

Question: What about the viability, T/C (second compound 10 µM, first compound 0.03 µM) of the same molecule?
Answer: 1.3%

Question: And the viability, T/C (second compound 10 µM, first compound 0.0949 µM)?
Answer: 0.94%

Question: And the viability, T/C (second compound 10 µM, first compound 0.3 µM)?
Answer: 0.79%

Question: With `CCn1c(-c2cc(N3CCN(C)CC3)cnc2C(C)OC)c2c3cc(ccc31)-c1csc(n1)CC(NC(=O)C1CC1C)C(=O)N1CCCC(N1)C(=O)OCC(C)(C)C2` (stereo not drawn) as the molecule, how does the viability, T/C (compound 0.000949 µM) read?
Answer: 51.8% [middle of 8 runs]

Question: What about the viability, T/C (compound 0.003 µM) of the same molecule?
Answer: 21.4% [middle of 8 runs]

Question: And the viability, T/C (compound 0.00949 µM)?
Answer: 5.65% [middle of 8 runs]

Question: And the viability, T/C (compound 0.03 µM)?
Answer: 2.68% [middle of 8 runs]

Question: And the viability, T/C (compound 0.0949 µM)?
Answer: 2.25% [middle of 8 runs]

Question: And the viability, T/C (compound 0.3 µM)?
Answer: 1.95% [middle of 7 runs]
